The values below come from patent EP1056700B1, “MEDICINAL USES OF PHENYLALKANOLS AND DERIVATES” (ZingoTX Pty Ltd, priority 1997, dated 1999).

One series deals with rat mesenteric artery. The experiment in a line: Vasodilation on rat mesenteric small arteries. Conditions: relaxation of small arteries (200-300 µm) precontracted with endothelin. The text has this: Small arteries (200-300 µm in diameter) isolated from rat mesentery were precontracted with endothelin prior to addition of the test substances and tested for relaxation.
The target in another series is T1, Lipoxygenase (LP) (Rattus norvegicus, UniProt P12527).
T1 construct: cell-free enzyme (Wong et al, 1991) prepared from rat basophilic leukemia (RBL) 2H3 cell lines; endogenous in cells; host or cells: RBL 2H3 (rat basophilic leukemia), 15,000 g supernatant of cells disrupted by nitrogen cavitation
T1 sequence (P12527 1-673): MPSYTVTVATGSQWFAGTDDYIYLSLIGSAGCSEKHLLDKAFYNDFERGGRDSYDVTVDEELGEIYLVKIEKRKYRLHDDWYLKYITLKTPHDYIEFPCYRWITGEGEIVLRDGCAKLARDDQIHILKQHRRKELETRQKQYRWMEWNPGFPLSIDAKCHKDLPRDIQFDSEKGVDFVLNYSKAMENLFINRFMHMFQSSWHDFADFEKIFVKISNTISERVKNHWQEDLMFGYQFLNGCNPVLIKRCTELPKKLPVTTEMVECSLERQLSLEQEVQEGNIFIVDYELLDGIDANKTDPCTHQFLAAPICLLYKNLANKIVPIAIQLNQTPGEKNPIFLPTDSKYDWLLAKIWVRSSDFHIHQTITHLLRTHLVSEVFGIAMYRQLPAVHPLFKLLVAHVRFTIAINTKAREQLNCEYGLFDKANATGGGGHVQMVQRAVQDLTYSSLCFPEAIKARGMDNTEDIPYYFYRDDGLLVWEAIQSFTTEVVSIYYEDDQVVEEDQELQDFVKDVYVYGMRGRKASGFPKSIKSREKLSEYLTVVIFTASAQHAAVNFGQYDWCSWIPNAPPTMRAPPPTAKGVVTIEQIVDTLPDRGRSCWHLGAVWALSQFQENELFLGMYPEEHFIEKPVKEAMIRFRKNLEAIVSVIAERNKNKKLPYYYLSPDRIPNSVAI
The experiment in a line: Lipoxygenase assay with cell-free enzyme from RBL 2H3 cells (EIA). The series is classed as biochemical. Particulars: final concentration of 10 µM. As to the method:
Lipoxygenase (LP) assay was performed with cell-free enzyme (Wong et al, 1991) prepared from rat basophilic leukemia (RBL) 2H3 cell lines. Cells were cultured in EMEM containing 10% fetal calf serum and antibiotic until cells reached confluence. Harvested cells were resuspended in Hepes (10 mM) buffer, pH 7.4, containing 1 mM EDTA at 1 x 10^7 cells/ml, and disrupted by nitrogen cavitation using a Parr bomb at 750 psi for 15 min. The broken cells were centrifuged at 15,000 g for 30 min. Aliquots (0.1 ml) of the supernatant were preincubated with or without drugs in Hepes buffer (10 mM Hepes, pH 7, 1 mM EDTA and 150 mM NaCl) for 5 min, and the reaction was initiated with the addition of 50 µl of CaCl2 (16 mM), 50 µl of ATP (2 mM), 5 µl of PAF (2.5 mg/ml) and 5 µl of AA (2.5 mM). The reaction mixture ([…]) was incubated at room temperature for a further 8 min, then diluted with EIA buffer at 1/200 and 1/2000 dilutions and stored on ice for EIA following the protocol provided with the kit.
Validation of LP enzyme activity was carried out by a UV spectrophotometric method in which the enzyme activity was characterised against various concentrations of Ca^2+, ATP, PAF and AA with the measurement of the formation of diene conjugated products of LP at 235 nm.
All compounds were dissolved in DMSO and assayed at a final concentration of 10 µM. NDGA was used as reference compound. The concentration of DMSO in the assay was maintained at 1.5%.

Series [1] can be described thus: Brine shrimp toxicity bioassay. The series is classed as in vivo. Conditions: Artemia salina (brine shrimp), in vivo; 24 hours, 2% DMSO. The text has this: (§1) The brine shrimp assay procedure determines LC50 values of active compounds. Activities of a broad range of known active compounds are manifested as toxicity to brine shrimp (Artemia salina Leach). There are many applications of the assay including analysis of toxic substances, anaesthetics, morphine-like substances and cocarcinogenicity of phorbol esters.
(§2) The method for testing solvent toxicity used was basically that reported by J L McLaughlin in Methods of Plant Biochemistry (1991), vol. 6 (K Hostettman, ed.), Academic Press, London, 1-32. DMSO solutions of the substances to be tested were added directly to the vials containing the brine shrimp. As the concentration of DMSO that we wished to use was higher than the recommended 1% v/v testing of the toxicity of the DMSO was therefore necessary. The concentrations of DMSO tested on the shrimp, along with the results from the assay which was done in duplicate are listed below.
(§3) Brine shrimp toxicity was assayed, except for some minor modifications, according to the method of McLaughlin et al as reported in Brine Shrimp: A convenient bioassay for active plant constituents, B N Meyer, N R Ferrigni, J E Putnam, L B Jacobsen, D E Nichols and J L McLaughlin in Planta Medica (1982), 45, 31-34 and Crown gall tumours on potato discs and brine shrimp lethality: Two simple bioassays for higher plant screening and fractionation. J L McLaughlin. Methods of Plant Biochemistry (1991), vol. 6 (K Hostettman, ed.), Academic Press, London, 1-32. Ten shrimp were transferred to each of the vials and the volume adjusted to 4.9 mL. Each dose was performed in triplicate, including the control. In quick succession, the appropriate volume of additional DMSO for each dose, required to achieve a final concentration of 2%, was added before the appropriate volume of test solution. The vials were gently mixed and the time noted. After 24 hours, the number of survivors were counted and % mortality was determined. The test compounds were assayed at concentrations of 100 µM, 25 µM, 5 µM, 1 µM and 0.2 µM (and where appropriate concentrations of 0.04 µM and 0.008 µM).
(§4) The brine shrimp were able to survive without food in the vials over the 24 hour period and were therefore not fed.
(§5) The dose-response curves were constructed using the Sigmaplot computer program and the LC50 value was calculated from the intersection point of the curve and the 50 % mortality line. The LC50 values were expressed in both µM and µg/mL.

The subject of a further series is guinea pig atria. The experiment in a line: Organ bath assay on isolated guinea pig atria (rate and force of contraction). Conditions: guinea pig atria. As to the method:
Male guinea pigs, 3-4 weeks old, were killed by rapid cervical dislocation without induced anaesthesia. Then, the guinea pigs were dissected to isolate the atria which were immediately mounted vertically in an organ bath containing Krebs-Henseleit solution oxygenated with carbogen.
One gram tension was applied to the atria and the base line continuously adjusted until it was stable for 20 mins. The rate and force of contraction were recorded using Mac Lab equipment.
Test substances in DMSO were assayed to a maximum concentration of 50 µM at a final concentration of 2.5 % of DMSO.

Another series deals with T2, SR Ca^2+-ATPase (Canis lupus familiaris, UniProt O46674).
T2 construct: Effect of gingerols and their derivatives on the Ca^2+-ATPase activity of dog cardiac SR; from tissue; host or cells: dog heart (cardiac sarcoplasmic reticulum)
Kind of series: Sarcoplasmic reticulum Ca^2+-ATPase assay. Format: biochemical, dog. Particulars: for SR Ca^2+-ATPase Activity: 0 µM = 100, dog cardiac SR; for IC50: read-out: SR Ca^2+-ATPase IC50 = conc. for 50% inhibition. The method, then: A portion at each concentration (54 µl) was aliquoted into 4 designated wells of the microplate (two of four wells were controls). Each well was mixed with ATP solution (20 mM, 6 µl), except the controls, using an 8 channel pipette. The controls were assayed in the absence of ATP or calcium.
The plate was incubated with the lid on, for 30 min at 37°C, colour reagent (160 µl) was then added and mixed with citrate solution (34%, 30 µl). The plate was developed at room temperature for 30 min then absorbance at 655 nm was read from the microplate reader. The Ca^2+-ATPase activity was quantitated, from a Pi standard curve, as concentration of liberated inorganic phosphate.
Stock solutions (10 mM) of test substance were prepared in DMSO, then series dilutions were made either in DMSO or in 1M HEPES to produce the dose-response concentrations. The maximum concentration of DMSO in the final assay solution was 2.5%.
Each concentration of test substance was assayed in duplicate in the presence and absence of ATP or calcium. Phosphate standards are run on each plate as follows:
Effect of gingerols and their derivatives on the Ca^2+-ATPase activity of dog cardiac SR.

Series [2] has as its system brine shrimp (Artemia salina Leach). The experiment in a line: Brine shrimp toxicity bioassay. The series is classed as in vivo.
Source text: as §1, §2, §3, §4, §5

Several values for one entry are separate records, joined by “and”; a condition that tells them apart may be missing. Equal values may be shown once.

T2 sequence (O46674 whole entry): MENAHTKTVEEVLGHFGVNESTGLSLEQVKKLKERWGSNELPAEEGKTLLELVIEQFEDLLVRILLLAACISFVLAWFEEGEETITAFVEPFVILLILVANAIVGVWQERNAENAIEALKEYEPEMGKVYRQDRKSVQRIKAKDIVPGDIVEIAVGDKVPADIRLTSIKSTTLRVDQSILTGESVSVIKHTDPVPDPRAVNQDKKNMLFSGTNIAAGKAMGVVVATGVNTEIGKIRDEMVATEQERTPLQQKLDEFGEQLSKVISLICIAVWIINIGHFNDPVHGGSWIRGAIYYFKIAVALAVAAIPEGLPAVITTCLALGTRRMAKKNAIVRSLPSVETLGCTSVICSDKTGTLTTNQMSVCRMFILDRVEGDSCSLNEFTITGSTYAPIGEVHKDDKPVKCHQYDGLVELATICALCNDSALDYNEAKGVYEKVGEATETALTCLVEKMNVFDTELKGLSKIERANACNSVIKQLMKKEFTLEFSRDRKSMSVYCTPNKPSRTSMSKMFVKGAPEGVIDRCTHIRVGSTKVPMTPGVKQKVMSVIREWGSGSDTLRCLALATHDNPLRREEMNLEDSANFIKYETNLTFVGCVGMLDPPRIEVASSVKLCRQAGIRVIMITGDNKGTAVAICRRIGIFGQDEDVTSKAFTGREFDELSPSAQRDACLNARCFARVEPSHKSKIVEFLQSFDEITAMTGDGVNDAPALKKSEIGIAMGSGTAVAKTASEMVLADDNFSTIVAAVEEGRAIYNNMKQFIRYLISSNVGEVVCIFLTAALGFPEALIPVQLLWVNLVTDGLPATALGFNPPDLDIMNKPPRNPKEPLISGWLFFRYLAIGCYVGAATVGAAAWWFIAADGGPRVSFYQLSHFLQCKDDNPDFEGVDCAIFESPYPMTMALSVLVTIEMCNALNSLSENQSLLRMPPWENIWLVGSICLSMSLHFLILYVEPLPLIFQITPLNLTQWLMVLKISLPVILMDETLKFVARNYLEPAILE

With `CCCCCCCCCC(O)CCc1ccc(O)c(OC)c1` (single isomer, unassigned) [enantiomer-2, 1-(4-hydroxy-3-methoxyphenyl)dodecan-3-ol], the EC50 (in general, the midpoint of the concentration-response curve) with rat mesenteric artery (Rattus norvegicus) was found to be 320 nM.
`CCCCCCCCCC(O)CCc1ccc(O)c(OC)c1` (single isomer, unassigned; enantiomer-1) [enantiomer-1, enantiomer-1 of 1-(4-hydroxy-3-methoxyphenyl)dodecan-3-ol] yielded a concentration giving a half-maximal response (EC50) with rat mesenteric artery of 500 nM.
Consider `CCCCCCCC=CC(=O)C=Cc1ccc(O)c(OC)c1` [1-(4-hydroxy-3-methoxyphenyl)dodecane-1,4-diene-3-one], for which, on Lipoxygenase (LP), the activity at 10 µM worked out at 2%. Further, the LC50 (commonly the concentration lethal to half of the exposed cells or organisms) at 24 h in series [1] was 5.4 µM and 1.6 µg/mL.
`CCCCCCCCCC(O)CC(=O)c1ccc(O)c(OC)c1` (stereo not shown) [3-hydroxy-1-(4-hydroxy-3-methoxyphenyl)dodecan-1-one]: in the series on guinea pig atria (@ 30 (µM)), the “FORCE OF CONTRACT^n ↑ increase” value is “↑11% @ 30”. For the same molecule, the “SR Ca^2+-ATPase Activity” value is reported as 122 on SR Ca^2+-ATPase (1 µM); 111 at SR Ca^2+-ATPase (5 µM); 133 at SR Ca^2+-ATPase (10 µM); 147 on SR Ca^2+-ATPase (25 µM); 158 on SR Ca^2+-ATPase (50 µM); 149 at SR Ca^2+-ATPase (100 µM). Also, the “SR Ca^2+-ATPase ↑ increase or stimulation” value on SR Ca^2+-ATPase (@ 10 µM) was “↑60% @ 10”. Moreover, the concentration for half-maximal inhibition (IC50) – broadly, the concentration that gives 50% inhibition – on SR Ca^2+-ATPase stood at 50000 nM. The LC50 at 24 h in series [1] is 10 µM and 3.2 µg/mL.
In the case of `CCCCCCCC(O)CC(=O)C=Cc1ccc(O)cc1` (stereo not shown) [5-hydroxy-1-(4-hydroxyphenyl)dodecan-1-ene-3-one], the LC50 at 24 h in series [1] is 2.6 µM and 0.75 µg/mL.
On to `C[S+](C)[O-]` [DMSO, dimethyl sulfoxide], for which the “% Deaths” value in series [2] (Conc 1 % v/v) amounted to 0%; in series [2] (Conc 2 % v/v), 0%; in series [2] (Conc 3 % v/v), 0%; in series [2] (Conc 4 % v/v), 0%; in series [2] (Conc 5 % v/v) it was 9%; in series [2] (Conc 7 % v/v), 12%. Also, the “% Deaths” value in series [2] (Conc 9 % v/v) was 18%; in series [2] (Conc 11 % v/v) it was 57%; in series [2] (Conc 13 % v/v), 96%; in series [2] (Conc 15 % v/v), 100%; in series [2] (Conc 20 % v/v) it was 100%; in series [2] (Conc 25 % v/v), 100%.
`CCCCCC(O)CC(=O)CCc1ccc(O)cc1` (stereo not shown) [[6]-demethoxygingerol, 5-hydroxy-1-(4-hydroxyphenyl)decan-3-one]: in the series with guinea pig atria (result in words), the “FORCE OF CONTRACT^n” value is “inactive” and the “HEART RATE” value is “inactive”. Further, the IC50 at SR Ca^2+-ATPase is > 100000 nM. For the same molecule, in series [1], the LC50 at 24 h is > 100 µM and > 26 µg/mL.
